Consider nine compounds from PubChem BioAssay (NCI).

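Cells were grown in 96-well plates and exposed to each compound for 48 hours at five concentrations; endpoints were interpolated linearly between bracketing concentrations, or set to the highest concentration if not reached. Here, GI50 denotes the concentration required for 50% inhibition of growth. Definition used: TGI = concentration required for complete inhibition of growth.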

Among the test systems are HOP-62 NSCLC; LOX IMVI melanoma; M14 melanoma; MCF7 breast; SK-MEL-28 melanoma; SK-OV-3 ovarian; SW-620 colon; UACC-257 melanoma.
Holding throughout (test): NCI-60 cell line screen, 48 h

`CC1(C)N=C(N)N=C(N)N1c1cccc(C#N)c1`: the GI50 was 16.6 µM in the experiment on HOP-62 NSCLC; 0.605 µM with LOX IMVI melanoma; 0.696 µM in the experiment with M14 melanoma; 3.85 µM in the experiment with MCF7 breast; 48.8 µM with SK-MEL-28 melanoma; 21.2 µM with SK-OV-3 ovarian. The figures for the GI50 in the experiment with SW-620 colon and in the experiment on UACC-257 melanoma were 0.567 µM and 11.7 µM, respectively. Moreover, the TGI in the experiment with HOP-62 NSCLC, with LOX IMVI melanoma, in the experiment with M14 melanoma, with MCF7 breast, in the experiment with SK-MEL-28 melanoma and in the experiment on SK-OV-3 ovarian was above 100 µM in each case. Moreover, the TGI in the experiment on SW-620 colon and in the experiment with UACC-257 melanoma was above 100 µM throughout.
On to `COc1ccc(-c2ccc(/C=C/C(=O)NO)cc2)cc1`, for which the GI50 in the experiment on HOP-62 NSCLC was 1.31 µM; in the experiment on LOX IMVI melanoma, 0.417 µM; in the experiment with M14 melanoma, 1.45 µM; with MCF7 breast, 0.639 µM; with SK-MEL-28 melanoma, 2.45 µM; with SK-OV-3 ovarian it was 1.18 µM. Moreover, the GI50 with SW-620 colon is 0.754 µM; in the experiment on UACC-257 melanoma it was 2.13 µM. Also, the TGI with HOP-62 NSCLC came to 3.11 µM; in the experiment on LOX IMVI melanoma it was 2.61 µM; with M14 melanoma, 7.64 µM; in the experiment on MCF7 breast, 19.2 µM; in the experiment with SK-MEL-28 melanoma it was 13 µM; with SK-OV-3 ovarian it was 3.21 µM. Moreover, the TGI in the experiment on SW-620 colon is above 100 µM; in the experiment with UACC-257 melanoma, 13.8 µM.
Consider `COc1cc(-c2cc(-c3ccc(N(C)C)cc3)nc(N3CCOCC3)c2C#N)cc(OC)c1OC`, for which the GI50 with HOP-62 NSCLC is 0.921 µM; in the experiment on LOX IMVI melanoma it was 0.0676 µM; in the experiment on M14 melanoma, 0.322 µM; in the experiment with MCF7 breast, 1.24 µM; in the experiment with SK-MEL-28 melanoma, 0.433 µM; in the experiment with SK-OV-3 ovarian it was 1.62 µM. The GI50 is 2.02 µM in the experiment with SW-620 colon and 1.18 µM in the experiment on UACC-257 melanoma. The TGI with HOP-62 NSCLC is 10.6 µM; in the experiment on LOX IMVI melanoma it was 0.225 µM; in the experiment with M14 melanoma it was 1.47 µM; in the experiment with MCF7 breast, above 55.2 µM; in the experiment on SK-MEL-28 melanoma, 5.68 µM; in the experiment on SK-OV-3 ovarian, above 100 µM. The results for the TGI with SW-620 colon and with UACC-257 melanoma were above 100 µM and above 82.9 µM, respectively.
For the compound `O=C(NCc1cccnc1)/C(=C\c1ccc(Br)cc1)S(=O)(=O)c1ccccc1`, the GI50 is 1.64 µM in the experiment on HOP-62 NSCLC; 0.45 µM in the experiment on LOX IMVI melanoma; 1.04 µM in the experiment with M14 melanoma; 0.409 µM in the experiment with MCF7 breast; 1.11 µM with SK-MEL-28 melanoma; 2.7 µM in the experiment with SK-OV-3 ovarian. The GI50 with SW-620 colon was 0.416 µM; with UACC-257 melanoma it was 1.25 µM. In addition, the TGI was 3.63 µM in the experiment with HOP-62 NSCLC; 1.73 µM in the experiment on LOX IMVI melanoma; 2.86 µM in the experiment with M14 melanoma; 2.11 µM with MCF7 breast; 2.55 µM with SK-MEL-28 melanoma; 5.97 µM with SK-OV-3 ovarian. Moreover, the TGI in the experiment with SW-620 colon worked out at 1.85 µM; with UACC-257 melanoma, 2.68 µM.
On to `COc1ccc(SC2c3cc(OC)c(OC)cc3Oc3nc(N)c(C#N)c(N)c32)cc1` (centres undefined), for which the GI50 was 1.7 µM in the experiment on HOP-62 NSCLC; 0.585 µM in the experiment with LOX IMVI melanoma; 1.21 µM in the experiment with M14 melanoma; 0.454 µM with MCF7 breast; 1.47 µM with SK-MEL-28 melanoma; 1.81 µM with SK-OV-3 ovarian. Further, the GI50 in the experiment with SW-620 colon is 1.24 µM; in the experiment with UACC-257 melanoma, 1.87 µM. The TGI was found to be 3.09 µM in the experiment on HOP-62 NSCLC; 1.86 µM in the experiment on LOX IMVI melanoma; 2.65 µM in the experiment on M14 melanoma; 2.1 µM in the experiment with MCF7 breast; 2.91 µM with SK-MEL-28 melanoma; 3.2 µM in the experiment on SK-OV-3 ovarian. For the same compound, the TGI in the experiment with SW-620 colon stood at 3.2 µM; in the experiment on UACC-257 melanoma, 3.32 µM.
Turning to `O=C1c2ccccc2C(=O)c2c1ccc(C(Br)Br)c2[N+](=O)[O-]`, the GI50 in the experiment with HOP-62 NSCLC was 1.42 µM; in the experiment with LOX IMVI melanoma it was 1.27 µM; with M14 melanoma, 1.97 µM; with MCF7 breast, 0.598 µM; in the experiment on SK-MEL-28 melanoma, 2.63 µM; in the experiment with SK-OV-3 ovarian, 14.1 µM. Also, the GI50 was 0.488 µM in the experiment on SW-620 colon and 1.74 µM with UACC-257 melanoma. The TGI in the experiment on HOP-62 NSCLC worked out at 2.99 µM; in the experiment on LOX IMVI melanoma, 2.59 µM; in the experiment on M14 melanoma it was 3.94 µM; in the experiment with MCF7 breast, 2.54 µM; in the experiment with SK-MEL-28 melanoma, 6.56 µM; with SK-OV-3 ovarian, 27.1 µM. Moreover, the results for the TGI in the experiment with SW-620 colon and with UACC-257 melanoma were 2.07 µM and 3.28 µM, respectively.
Take `CN(C)CCCNc1nn2c(=O)c3ccccc3nc2c2ccccc12`: the GI50 with HOP-62 NSCLC was 8.26 µM; in the experiment on LOX IMVI melanoma, 3.8 µM; in the experiment with M14 melanoma, 11.8 µM; in the experiment with MCF7 breast, 3.43 µM; with SK-MEL-28 melanoma it was 15.8 µM; with SK-OV-3 ovarian, 5.43 µM. In addition, the GI50 is 4.94 µM in the experiment on SW-620 colon and 16 µM with UACC-257 melanoma. The TGI with HOP-62 NSCLC came to 21.5 µM; with LOX IMVI melanoma, 17.2 µM; with M14 melanoma it was 24.5 µM; in the experiment with MCF7 breast, 15.6 µM; in the experiment on SK-MEL-28 melanoma, 29.3 µM; in the experiment with SK-OV-3 ovarian it was 22.8 µM. Also, the TGI with SW-620 colon came out at 19 µM; in the experiment with UACC-257 melanoma, 32.6 µM.
With `COc1cc(C)c(C(=O)O[C@H]2[C@H](O[C@H]3[C@@H](O)COC(O[C@H]4C[C@H]5[C@@H]6CC=C7C[C@@H](O)CC[C@]7(C)[C@H]6CC[C@]5(C)[C@H]4[C@H](C)C(=O)CCC(C)C)[C@@H]3OC(C)=O)OC[C@@H](O)[C@@H]2O)c(C)c1` (some centres undefined), the GI50 in the experiment on HOP-62 NSCLC was 0.0125 µM; with LOX IMVI melanoma, below 0.01 µM; in the experiment on M14 melanoma, below 0.01 µM; in the experiment with MCF7 breast, below 0.01 µM; with SK-MEL-28 melanoma it was below 0.01 µM; in the experiment with SK-OV-3 ovarian, 0.141 µM. Besides, the GI50 is below 0.01 µM in the experiment with SW-620 colon and 0.021 µM in the experiment on UACC-257 melanoma. Also, the TGI with HOP-62 NSCLC is 3.65 µM; in the experiment on LOX IMVI melanoma, 0.0183 µM; in the experiment on M14 melanoma, below 0.01 µM; in the experiment with MCF7 breast it was 7.62 µM; with SK-MEL-28 melanoma, 0.0192 µM; in the experiment with SK-OV-3 ovarian, 2.73 µM. For the same compound, the TGI in the experiment on SW-620 colon was 0.183 µM; in the experiment with UACC-257 melanoma it was 0.0738 µM.
Take `S=c1nc(-c2ccccc2)oc(=NC2CCCCC2)n1C1CCCCC1`: the GI50 in the experiment on HOP-62 NSCLC was 5.9 µM; in the experiment on LOX IMVI melanoma it was 4.89 µM; with M14 melanoma it was 6.2 µM; with MCF7 breast it was 3.2 µM; in the experiment on SK-MEL-28 melanoma, 14.3 µM; with SK-OV-3 ovarian, 5.05 µM. For the same compound, the GI50 in the experiment with SW-620 colon is 3.78 µM; in the experiment with UACC-257 melanoma, 2.31 µM. The TGI was 23.1 µM in the experiment on HOP-62 NSCLC; 20.8 µM with LOX IMVI melanoma; 27.8 µM in the experiment on M14 melanoma; 12.2 µM in the experiment with MCF7 breast; 30.2 µM with SK-MEL-28 melanoma; above 100 µM in the experiment with SK-OV-3 ovarian. Also, the TGI with SW-620 colon was 14.6 µM; with UACC-257 melanoma it was 5.98 µM.
